The values that follow come from patent publication US9844542B2, “Substituted imidazopyridine and triazolopyridine compounds as negative allosteric modulators of mGluR5” (Vanderbilt University, priority 2013, dated 2017).

For data set [1] the following is noted: intravenous administration, rhesus monkeys; cited from earlier work.
The target in data set [2] is T1, cytochrome P450 1A2 (Homo sapiens, UniProt P05177).
T1 sequence (P05177 1-516): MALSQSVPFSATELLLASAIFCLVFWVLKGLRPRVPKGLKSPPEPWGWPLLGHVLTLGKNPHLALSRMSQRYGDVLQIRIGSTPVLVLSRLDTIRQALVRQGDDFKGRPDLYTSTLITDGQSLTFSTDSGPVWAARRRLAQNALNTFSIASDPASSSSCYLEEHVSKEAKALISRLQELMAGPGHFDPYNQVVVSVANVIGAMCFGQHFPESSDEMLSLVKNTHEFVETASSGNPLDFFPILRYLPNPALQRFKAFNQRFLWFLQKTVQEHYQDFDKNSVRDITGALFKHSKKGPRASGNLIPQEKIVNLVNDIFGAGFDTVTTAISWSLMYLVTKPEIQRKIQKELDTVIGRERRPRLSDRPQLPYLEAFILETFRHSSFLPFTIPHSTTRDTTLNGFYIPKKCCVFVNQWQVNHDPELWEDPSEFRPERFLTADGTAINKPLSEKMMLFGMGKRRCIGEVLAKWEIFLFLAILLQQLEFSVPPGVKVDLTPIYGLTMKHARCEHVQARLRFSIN
Particulars: cited from earlier work.

Data set [3] addresses mGluR4 (Homo sapiens, UniProt Q14833). Particulars: cited from earlier work.
Data set [4] relates to male Harlan CD-1 mice. The settings on record: literature; cited from earlier work.
The test system of data set [5] is N-methyl-D-aspartate (NMDA) receptor. Particulars: at higher concentrations; cited from earlier work.
Data set [6] concerns the target T2, rat mGluR5 (Rattus norvegicus, UniProt P31424).
T2 construct: expressed in transfected cells
The data set can be described thus: mGluR5 calcium mobilization assay (FDSS, Fluo-4) in HEK 293A cells stably expressing rat mGluR5. The format is cell-based. Particulars: HEK cells transfected with rat mGluR5; antagonism of glutamate EC80 response; ± = standard error of at least three experiments. The protocol:
Human embryonic kidney (HEK) cells transfected with rat or human mGluR5 were plated in clear bottom assay plates for assay in a Functional Drug Screening System (FDSS). The cells were loaded with a Ca^2+-sensitive fluorescent dye (e.g., Fluo-4), and the plates were washed and placed in the FDSS instrument. Test compound was applied to cells 3 seconds after baseline readings were taken. Cells were incubated with the test compounds for 140 seconds and then stimulated with an EC20 concentration of an mGluR5 agonist (e.g., glutamate, 3,5-dihydroxyphenylglycine, or quisqualate); 60-80 seconds later an EC80 concentration of agonist was added and readings taken for an additional 40 seconds. Data were collected at 1 Hz. […] Concentration response curves were generated using a four parameter logistical equation.
The above described assay was operated in two modes. In the first mode (utilizing a triple add protocol), a range of concentrations of the present compounds were added to cells, followed by two single fixed concentrations of agonist (EC20 followed by EC80). If a compound acted as a potentiator, an EC50 value for potentiation of the EC20 response and a maximum extent of potentiation by the compound at this concentration of agonist was determined by non-linear curve fitting. If a compound acted as an antagonist, an IC50 value for antagonism of the EC80 response and a maximum extent of antagonism by the compound at this concentration of agonist was determined by non-linear curve fitting. In the second mode (utilizing a double add protocol), several fixed concentrations of the present compounds were added to various wells on a plate, followed by a range of concentrations of agonist for each concentration of present compound; the EC50 values for the agonist at each concentration of compound were determined by nonlinear curve fitting. A decrease in the EC50 value of the agonist with increasing concentrations of the present compounds (a leftward shift of the agonist concentration-response curve) is an indication of the degree of mGluR5 positive allosteric modulation at a given concentration of the present compound. An increase in the EC50 value of the agonist with increasing concentrations of the present compounds (a rightward shift of the agonist concentration response curve) is an indication of the degree of mGluR5 antagonism at a given concentration of the present compound. The second mode also indicates whether the present compounds also affect the maximum response to mGluR5 to agonists.
The mGluR5 activity was determined using the calcium mobilization assays in human embryonic kidney cells as described herein below, wherein the human embryonic kidney cells were transfected with rat mGluR5. The mGluR5 activity data for some compounds are shown as the average of at least three experiments with the standard error in these cases. If no error is indicated for the mGluR5 activity, the values given represent the results from a single experiment or the average of two experiments. The compounds in Table 1 were synthesized with methods identical or analogous to those shown herein. The requisite starting materials were commercially available, described in the literature, or readily synthesized by one skilled in the art of organic synthesis.
GluMax is the amplitude of response in the presence of 30 μM test compound as a percentage of maximal response (100 μM glutamate). Partial antagonists display concentration-response curves (CRCs) that plateau above 10%.
The preparation of rat mGluR5 stable cell-lines is as previously described (e.g. see Romano et al. J Biol. Chem. 1996 Nov. 8; 271(45):28612-6).
(In general: Calcium assays in cells follow changes in intracellular calcium, usually with a dye or a luminescent sensor.)

T2 sequence (P31424 21-1171 isoform P31424-2 limits assumed): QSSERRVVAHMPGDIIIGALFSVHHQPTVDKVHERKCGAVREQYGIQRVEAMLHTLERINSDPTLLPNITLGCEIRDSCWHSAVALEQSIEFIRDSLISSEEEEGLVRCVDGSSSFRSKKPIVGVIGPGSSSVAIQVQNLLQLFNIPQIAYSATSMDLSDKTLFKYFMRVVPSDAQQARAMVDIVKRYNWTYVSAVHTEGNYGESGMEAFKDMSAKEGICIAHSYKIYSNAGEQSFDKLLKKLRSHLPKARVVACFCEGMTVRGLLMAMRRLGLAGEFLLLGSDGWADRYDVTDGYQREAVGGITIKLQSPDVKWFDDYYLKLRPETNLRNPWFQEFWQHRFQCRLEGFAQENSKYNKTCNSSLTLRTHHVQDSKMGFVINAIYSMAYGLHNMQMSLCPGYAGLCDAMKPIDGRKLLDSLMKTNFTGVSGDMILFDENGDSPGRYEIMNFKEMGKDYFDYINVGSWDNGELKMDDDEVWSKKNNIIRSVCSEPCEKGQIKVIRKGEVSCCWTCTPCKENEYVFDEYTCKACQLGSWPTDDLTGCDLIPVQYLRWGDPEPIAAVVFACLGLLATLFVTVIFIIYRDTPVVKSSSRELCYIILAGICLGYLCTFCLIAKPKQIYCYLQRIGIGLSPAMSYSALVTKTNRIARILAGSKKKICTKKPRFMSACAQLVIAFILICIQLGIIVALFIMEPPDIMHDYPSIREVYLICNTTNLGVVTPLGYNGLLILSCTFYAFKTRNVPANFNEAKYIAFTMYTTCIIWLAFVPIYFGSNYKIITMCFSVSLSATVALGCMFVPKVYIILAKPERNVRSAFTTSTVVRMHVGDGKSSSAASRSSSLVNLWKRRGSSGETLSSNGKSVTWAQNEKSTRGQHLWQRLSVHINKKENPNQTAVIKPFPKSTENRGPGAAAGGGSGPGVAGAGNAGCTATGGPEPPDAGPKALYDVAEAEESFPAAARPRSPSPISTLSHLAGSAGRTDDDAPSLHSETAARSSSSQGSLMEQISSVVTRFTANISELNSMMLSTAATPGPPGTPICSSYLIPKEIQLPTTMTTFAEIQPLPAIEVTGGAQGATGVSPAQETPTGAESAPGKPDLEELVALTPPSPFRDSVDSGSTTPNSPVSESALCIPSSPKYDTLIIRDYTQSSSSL
Sequence of mGluR4 (Q14833 33-912): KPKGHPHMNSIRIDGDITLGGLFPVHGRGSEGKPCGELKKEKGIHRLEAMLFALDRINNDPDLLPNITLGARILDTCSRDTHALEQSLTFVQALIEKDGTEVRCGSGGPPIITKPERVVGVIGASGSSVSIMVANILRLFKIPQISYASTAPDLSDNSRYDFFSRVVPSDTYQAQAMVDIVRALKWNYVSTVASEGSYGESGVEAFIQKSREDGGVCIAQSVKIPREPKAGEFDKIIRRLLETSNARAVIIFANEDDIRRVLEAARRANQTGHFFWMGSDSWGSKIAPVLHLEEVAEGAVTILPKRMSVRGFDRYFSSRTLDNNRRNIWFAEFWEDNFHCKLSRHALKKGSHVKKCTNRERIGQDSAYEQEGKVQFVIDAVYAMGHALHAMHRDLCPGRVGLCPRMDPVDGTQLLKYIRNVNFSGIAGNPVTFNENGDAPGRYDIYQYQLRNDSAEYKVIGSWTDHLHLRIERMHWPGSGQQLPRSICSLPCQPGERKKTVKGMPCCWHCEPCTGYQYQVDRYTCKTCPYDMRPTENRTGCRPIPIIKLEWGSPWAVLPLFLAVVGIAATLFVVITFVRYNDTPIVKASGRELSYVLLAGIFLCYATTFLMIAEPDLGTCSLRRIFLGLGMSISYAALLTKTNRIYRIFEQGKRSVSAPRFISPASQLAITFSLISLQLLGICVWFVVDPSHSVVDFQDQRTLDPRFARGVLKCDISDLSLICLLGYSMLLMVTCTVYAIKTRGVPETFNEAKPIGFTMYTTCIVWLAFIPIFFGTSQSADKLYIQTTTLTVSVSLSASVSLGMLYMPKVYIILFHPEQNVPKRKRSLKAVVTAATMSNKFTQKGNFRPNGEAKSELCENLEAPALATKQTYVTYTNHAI

In the case of `Cc1nc(C#Cc2cccnc2)cs1` [MTEP, 3-[(2-methyl-1,3-thiazol-4-yl)ethynyl]pyridine], the clearance result in data set [1] is “efficiently cleared”. Besides, in data set [2], the “cytochrome P450 1A2 inhibition” value was “potent inhibitor”.

Turning to `Cc1cccc(C#Cc2ccccc2)n1` [MPEP, 2-methyl-6-(phenylethynyl) pyridine], in data set [3], the “activity at mGluR4” value was “positive allosteric modulator”. In addition, in data set [4], the “effect in marble burying model” value is reported as “effective”. For the same compound, in data set [5], the NMDA receptor activity entry is “directly inhibit”.

On to `CN1CC(=O)N=C1NC(=O)Nc1cccc(Cl)c1` [fenobam, 1-(3-chlorophenyl)-3-(1-methyl-4-oxo-4,5-dihydro-1H-imidazol-2-yl)urea], for which, in data set [4], the “effect in marble burying model” value is “effective”.

Turning to `COc1cncc(Oc2cc(C(=O)Nc3ccccn3)c3nncn3c2)c1`, the IC50 in data set [6] came to 897 nM.

`Cc1cncc(Oc2cc(C(=O)Nc3ccc(F)cn3)c3ncnn3c2)c1`: the IC50 in data set [6] worked out at 94 nM.

Regarding `COc1cncc(Oc2cc(C(=O)Nc3ccc(F)c(C)n3)c3nncn3c2)c1`, the IC50 in data set [6] was 10300 nM.

As to `O=C(Nc1nc(C2CC2)cs1)c1cc(Oc2cncnc2)cn2ncnc12`, the IC50 in data set [6] came out at 161 nM.

`O=C(Nc1ccc(F)cn1)c1cc(Oc2cncc(F)c2)cn2ccnc12`: the IC50 in data set [6] was found to be 12 nM.

Take `O=C(Nc1nc(C(F)(F)F)cs1)c1cc(Oc2cncnc2)cn2ncnc12`: the IC50 in data set [6] stood at 535 nM.

Turning to `CCc1cccc(NC(=O)c2cc(Oc3cncc(Cl)c3)cn3ncnc23)n1`, the concentration for half-maximal inhibition (IC50) in data set [6] is 264 nM.

In the case of `Cc1cccc(NC(=O)c2cc(Oc3cncnc3)cn3cnnc23)n1`, the IC50 in data set [6] stood at 674 nM.

On to `COc1cccc(NC(=O)c2cc(Oc3cncc(F)c3)cn3cnnc23)n1`, for which the half-inhibitory concentration (IC50) in data set [6] was 146 nM.

Regarding `[2H]c1nc(NC(=O)c2cc(Oc3cncc(F)c3)cn3cnnc23)c([2H])c([2H])c1[2H]`, the IC50 in data set [6] amounted to 45 nM.

Consider `Cc1ccc(NC(=O)c2cc(Oc3cnc(C)nc3)cn3cnnc23)nc1`, for which the IC50 in data set [6] is over 10000 nM.

Regarding `O=C(Nc1ccc(F)cn1)c1cc(Oc2cncnc2)cn2cnnc12`, the concentration for half-maximal inhibition (IC50) in data set [6] amounted to 162 nM.

Consider `COc1cccc(NC(=O)c2cc(Oc3cncc(F)c3)cn3ccnc23)n1`, for which, in data set [6], the IC50 came to 94 nM.

As to `Cc1nc2c(C(=O)Nc3ccccn3)cc(Oc3cncc(F)c3)cn2n1`, the half-inhibitory concentration (IC50) in data set [6] was found to be 97 nM.

With `O=C(Nc1ccccn1)c1cc(Oc2cncnc2)cn2ncnc12`, the IC50 in data set [6] was 219 nM.

With `Cc1ccc(NC(=O)c2cc(Oc3cccnc3)cn3ncnc23)nc1`, in data set [6], the IC50 amounted to 50 nM.

Regarding `N#Cc1cncc(Oc2cc(C(=O)Nc3ccccn3)c3nncn3c2)c1`, the IC50 in data set [6] was found to be 674 nM.

For the compound `COc1cncc(Oc2cc(C(=O)Nc3cccc(OC)n3)c3nccn3c2)c1`, the 50% inhibitory concentration (IC50) in data set [6] is 268 nM.

As for `[2H]c1nc(NC(=O)c2cc(Oc3cnc(C)nc3)cn3cnnc23)c([2H])c([2H])c1[2H]`, the 50% inhibitory concentration (IC50) in data set [6] worked out at 7970 nM.

As for `COc1cncc(Oc2cc(C(=O)Nc3ccccn3)c3nccn3c2)c1`, the half-maximal inhibitory concentration (IC50) in data set [6] was determined as 40 nM.

Turning to `Cc1csc(NC(=O)c2cc(Oc3cncc(F)c3)cn3nc(C)nc23)n1`, the IC50 in data set [6] was determined as 135 nM.

For the compound `COc1ccc(NC(=O)c2cc(Oc3cncc(OC)c3)cn3ncnc23)nc1`, in data set [6], the half-maximal inhibitory concentration (IC50) was 331 nM.

As to `O=C(Nc1ccc(F)cn1)c1cc(Oc2cncc(O)c2)cn2ncnc12`, the IC50 in data set [6] is 40 nM.

For `CCc1cccc(NC(=O)c2cc(Oc3cnc(C)nc3)cn3cnnc23)n1`, the IC50 in data set [6] was over 10000 nM.

What is called IC50 is the midpoint of a concentration-inhibition curve.
